Results reported in patent US20220331298A1, “TREATMENT OF FRAGILE X SYNDROME WITH IBUDILAST IN COMBINATION WITH METFORMIN, CANNBIDIOL, SERTRALINE OR QUERCETIN” (priority 2019, published 2022).

Columns and labels:
Type in all cases: in vivo
Fmr1 KO2 mice [1] = experiment: Behavioral testing (all behavioural tests together)
Text: (§1) Fmr1 knockout 2 (Fmr1 KO2) mice were generated by deletion of the promoter and first exon of Fmr1. The Fmr1 KO2 it is both, protein and mRNA null. In this study we used Fmr1 KO2 and wild-type (WT) littermates generated on a C57BL/6J background and repeatedly backcrossed onto a C57BL/6J background for more than eight generations.
(§2) There were five treatment groups per compound in the study with 10 male mice used per treatment group (all at 8 weeks of age): Group 1: wild-type littermate mice treated with vehicle (WT-Veh), Group 2: Fmr1 KO2 mice treated with vehicle (KO-Veh), Group 3: Fmr1 KO2 mice treated with ibudilast (KO-ibudilast); Group 4: Fmr1 KO2 mice treated with compound A (KO-[compound A]); Group 5: Fmr1 KO2 mice treated with ibudilast and compound A (KO-ibu/[compound A].
For experiments, all mice were tested once in the same apparatus. Prior to testing, mice were placed in the apparatus for some minutes before the experiment. The apparatus was cleaned with moist and dry tissues before testing each mouse. The aim was to create a low but constant background mouse odor for all experimental subjects. Testers were blind to the genotype and treatment during all testing and data analysis. We assessed weight loss, fur loss, walking, eyes open, eye discharges and general behavior.
(§3) Data were analyzed by one-way ANOVA with a Dunnett's multiple comparison post hoc test in which WT Vehicle group was used as reference and compared with all the other groups

Fmr1 KO2 mice [2] = experiment: Fear conditioning
Text: The Fmr1 KO2 it is both, protein and mRNA null. In this study we used Fmr1 KO2 and wild-type (WT) littermates generated on a C57BL/6J background and repeatedly backcrossed onto a C57BL/6J background for more than eight generations. There were five treatment groups per compound in the study with 10 male mice used per treatment group (all at 8 weeks of age): Group 1: wild-type littermate mice treated with vehicle (WT-Veh), Group 2: Fmr1 KO2 mice treated with vehicle (KO-Veh), Group 3: Fmr1 KO2 mice treated with ibudilast (KO-ibudilast); Group 4: Fmr1 KO2 mice treated with compound A (KO-[compound A]); Group 5: Fmr1 KO2 mice treated with ibudilast and compound A (KO-ibu/[compound A]. For experiments, all mice were tested once in the same apparatus. Prior to testing, mice were placed in the apparatus for some minutes before the experiment. The apparatus was cleaned with moist and dry tissues before testing each mouse. The aim was to create a low but constant background mouse odor for all experimental subjects. Testers were blind to the genotype and treatment during all testing and data analysis. We assessed weight loss, fur loss, walking, eyes open, eye discharges and general behavior. […] The dependent measure used in contextual fear conditioning was a freezing response following a pairing of an unconditioned stimulus (foot shock), with a conditioned stimulus, a particular context. […]

Fmr1 KO2 mice [3] = experiment: Open field (hyperactivity)
Text: as §1, §2
(§4) For experiments, all mice were tested once in the same apparatus. […] We assessed weight loss, fur loss, walking, eyes open, eye discharges and general behavior.
The open-field apparatus was used to test hyperactivity. […] The number of squares entered by the whole body (locomotor activity) was counted. The movement of the mouse around the field was recorded with a video tracking device for 3 min (version NT4.0, Viewpoint).
as §3

Fmr1 KO2 mice [4] = experiment: Social interaction (three-chambered sociability task)
Text: as §1, §2, §4
In the three-chambered sociability task, a subject mouse was evaluated for its exploration of a novel social stimulus (novel mouse). […] The time spent exploring the novel mice was scored as exploration ratio.
as §3

Fmr1 KO2 mice [5] = experiment: Nesting
Text: The Fmr1 KO2 it is both, protein and mRNA null. In this study we used Fmr1 KO2 and wild-type (WT) littermates generated on a C57BL/6J background and repeatedly backcrossed onto a C57BL/6J background for more than eight generations. There were five treatment groups per compound in the study with 10 male mice used per treatment group (all at 8 weeks of age): Group 1: wild-type littermate mice treated with vehicle (WT-Veh), Group 2: Fmr1 KO2 mice treated with vehicle (KO-Veh), Group 3: Fmr1 KO2 mice treated with ibudilast (KO-ibudilast); Group 4: Fmr1 KO2 mice treated with compound A (KO-[compound A]); Group 5: Fmr1 KO2 mice treated with ibudilast and compound A (KO-ibu/[compound A]. For experiments, all mice were tested once in the same apparatus. Prior to testing, mice were placed in the apparatus for some minutes before the experiment. The apparatus was cleaned with moist and dry tissues before testing each mouse. The aim was to create a low but constant background mouse odor for all experimental subjects. Testers were blind to the genotype and treatment during all testing and data analysis. We assessed weight loss, fur loss, walking, eyes open, eye discharges and general behavior. […] Mice were placed individually into the nesting cages 1 hr. before the dark phase, and the results were assessed the next morning. Nest building was scored on a 5 point scale. […]

In the case of C=C(C)[C@@H]1CCC(C)=C[C@H]1c1c(O)cc(CCCCC)cc1O [cannabidiol], the “effect of the amount given alone in the behavioural tests” value (“effect of the amount given alone” below) (Fmr1 KO2 mice [1]; cannabidiol alone 5 mg/kg, FIG. 5) is reported as “ineffective”.

CC(C)C(=O)c1c(C(C)C)nn2ccccc12 [ibudilast, 2-methyl-1-(2-propan-2-ylpyrazolo[1,5-a]pyridin-3-yl)propan-1-one] was tested, and the fear conditioning rescue (Fmr1 KO2 mice [2]; ibudilast 3 mg/kg, FIG. 1) was “partially rescued”, the fear conditioning rescue (Fmr1 KO2 mice [2]; ibudilast 12 mg/kg, FIG. 2) was “fully rescued” and the “open field (hyperactivity) rescue” value (Fmr1 KO2 mice [3]; ibudilast 3 mg/kg, FIG. 1) was “inactive”. For the same molecule, the “open field (hyperactivity) rescue” value (Fmr1 KO2 mice [3]; ibudilast 12 mg/kg, FIG. 2) was “fully rescued”, the “effect of the amount given alone” value (Fmr1 KO2 mice [1]; ibudilast alone 3 mg/kg) was “ineffective” and the sociability rescue (Fmr1 KO2 mice [4]; ibudilast 3 mg/kg, FIG. 1) was “inactive”. For the same molecule, the sociability rescue (Fmr1 KO2 mice [4]; ibudilast 12 mg/kg, FIG. 2) was “fully rescued”, the nesting rescue (Fmr1 KO2 mice [5]; ibudilast 3 mg/kg, FIG. 1) was “inactive” and the nesting rescue (Fmr1 KO2 mice [5]; ibudilast 12 mg/kg, FIG. 2) was “fully rescued”.

With CN(C)C(=N)N=C(N)N [metformin] the “effect of the amount given alone” value (Fmr1 KO2 mice [1]; metformin alone 25 mg/kg, FIG. 4) was “ineffective”.

In the case of O=c1c(O)c(-c2ccc(O)c(O)c2)oc2cc(O)cc(O)c12 [quercetin], the “effect of the amount given alone” value (Fmr1 KO2 mice [1]; quercetin alone 5 mg/kg, FIG. 6) is reported as “ineffective”.

CN[C@H]1CC[C@@H](c2ccc(Cl)c(Cl)c2)c2ccccc21 [sertraline] was tested, and the “effect of the amount given alone” value (Fmr1 KO2 mice [1]; sertraline alone 1 mg/kg, FIG. 3) was “ineffective”.
